Source: patent US20210393565A1, “PREPARATION FOR USE TO INCREASE THE FORMATION OF ONE OR MORE SPECIALIZED PRO-RESOLVING LIPID MEDIATORS (SPM)” (Evonik Operations GmbH, priority 2018, published 2021)

How the values were obtained:
Type in all cases: cell-based
[1] = test system: Bacillus megaterium DSM 33296 cells; experiment: Lipidometabolomics of culture supernatants with AvailOm dispersion formulation; conditions: Bacillus megaterium DSM 33296, AvailOm dispersion formulation; net concentration
Excerpt: (§1) Bacterial supernatant samples were subjected to lipid extraction using RP-phase solid phase extraction and subsequently analyzed by ultra performance liquid chromatography ESI tandem mass spectrometry (UPLC-MS/MS) according to a published procedure. Under these conditions approximately 40 different LM, including 5-hydroxy-eicosapentaenoic acid 5-HEPE, 8-HEPE, 11-HEPE, 12-HEPE, 15-HEPE, 18-HEPE, 5-hydroxy-eicosatetraenoic acid (5-HETE), 8-HETE, 11-HETE, 12-HETE, 15-HETE, 4-hydroxy-DHA (4-HDHA), 7-HDHA, 13-HDHA, 14-HDHA, 17-HDHA, lipoxin A4 (LXA4), LXB4, resolvin E1 (RvE1), RvE3, resolvin D1-5 (RvD1-5), AT-RvD1, RvD2, protectin D1 (PD1), AT-PD1, maresin 1(MaR1), MaR2, plus 4 fatty acid substrates can be detected with a lower limit of detection of 1 pg.
(§2) 47 additional Bacillus megaterium strains sourced from various habitats were screened for their SPM production capacity to determine if this is a general phenomenon of the species Bacillus megaterium and to detect strain-specific differences in types and quantities of SPM being produced. Cells were cultured as detailed in example 4, with dispersion formulation of AvailOm® serving as omega-3 fatty acid source. Cell-free preparations of AvailOm® were treated and analyzed in parallel and served as controls for non-enzymatic, spontaneous formation of oxygenation products. It was observed that all tested strains produced measurable (>1 pg/ml) amounts of various SPM and precursors thereof, that these amounts were hugely different between the strains (up to 2.000 fold), and that concentrations of RvE3 were particularly high (up to 1.3 μg/ml) in most of the strains.
(§3) Values given in table 7 display net concentrations of PUFA oxygenation products formed by two of the top performing strains, Bacillus megaterium DSM 33296 and Bacillus megaterium DSM 33299.

[2] = test system: Bacillus megaterium DSM 33299 cells; experiment: as above; conditions: Bacillus megaterium DSM 33299, AvailOm dispersion formulation; net concentration
Excerpt: as §1, §2, §3

[3] = test system: Bacillus megaterium DSM 32963 cells; experiment: Lipidometabolomics (UPLC-MS/MS) of culture supernatants with AvailOm, dissolved or as dispersion; conditions: − bile acids, AvailOm dispersion; net after subtraction of cell-free control
Excerpt: as §1
To investigate if Bacillus megaterium is capable of producing other PUFA oxygenation products in addition to 18-HEPE, a lipidometabolomics screening of supernatants from Bacillus megaterium strain 32963 cultured as in example 4 with AvailOm® was performed, either dissolved or in a dispersion formulation, with or without bile acids. Cell-free preparations of AvailOm® formulations were treated and analyzed in parallel and served as controls for non-enzymatic, spontaneous formation of oxygenation products. Values given in table 6 display net concentrations of products formed, i.e. after subtraction of control values. […] Concentrations of several SPM exceed by far the concentrations of SPM found in human plasma samples, which are typically in a range of ˜20-100 pg/ml. For comparison, human breast milk contains ˜6.000 pg/ml RvE1 and ˜10.000 pg/ml RvD1 [42].

[4] = test system: 47 additional Bacillus megaterium strains; experiment: Screening of 47 additional strains for SPM production from AvailOm dispersion formulation
Excerpt: as §1
as §2, with “It was observed that all tested strains produced measurable (>1 pg/ml) amounts of various SPM and precursors thereof, that these amounts were hugely different between the strains (up to 2.000 fold), and that concentrations of RvE3 were particularly high (up to 1.3 μg/ml) in most of the strains.” left out

## CC[C@H](O)C(O)/C=C/C=C/C=C\C/C=C\C/C=C\CCCC(=O)O (stereo partly shown) [RvE3, resolvin E3]
[1]
  Extracellular concentration of PUFA oxygenation product: 1322555 pg/mL
[2]
  Extracellular concentration of PUFA oxygenation product: 880739 pg/mL
[3]
  Extracellular concentration of PUFA oxygenation product: 33092 pg/mL
[4]
  concentration produced, highest among the strains: up to 1.3 μg/ml
